Laboratory results as given in patent EP0946545B1, “NOVEL CARBOXY SUBSTITUTED CYCLIC CARBOXAMIDE DERIVATIVES” (Aventis Pharmaceuticals Inc., priority 1996, dated 1998).
Counter-ions that a name gives are not always drawn.

Assays:
NK1 receptor = target: T1, NK1 receptor (Cavia porcellus, UniProt P30547); assay: Antagonism of iodinated tachykinin binding to NK1 receptors (Example A); parameters: species or system guinea pig
T1 construct: evaluated in guinea pig lungs (Keystone Biologicals, Cleveland, OH); tissue Keystone Biologicals, Cleveland, OH; host or cells: guinea pig lung membranes
T1 sequence (P30547 whole entry): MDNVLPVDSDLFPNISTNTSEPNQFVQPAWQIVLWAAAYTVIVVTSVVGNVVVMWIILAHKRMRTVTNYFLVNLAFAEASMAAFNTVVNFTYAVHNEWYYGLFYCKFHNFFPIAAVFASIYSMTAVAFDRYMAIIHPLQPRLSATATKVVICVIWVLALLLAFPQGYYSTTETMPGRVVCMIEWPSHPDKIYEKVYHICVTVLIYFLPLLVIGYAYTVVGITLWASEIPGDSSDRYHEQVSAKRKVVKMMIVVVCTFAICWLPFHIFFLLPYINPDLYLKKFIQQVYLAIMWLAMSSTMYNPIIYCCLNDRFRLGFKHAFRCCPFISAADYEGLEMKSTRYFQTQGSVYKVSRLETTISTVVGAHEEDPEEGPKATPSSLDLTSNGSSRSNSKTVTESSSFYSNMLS
Method: (§1) One skilled in the art can determine the NK1 receptor and NK2 receptor affinity in vitro as follows. The NK1 receptor affinity of tachykinin antagonists is evaluated in guinea pig lungs (Keystone Biologicals, Cleveland, OH) and affinity for the NK2 receptor is evaluated in HSKR-1 cells (which are mouse 3T3 fibroblasts expressing the human jejunal NK2 receptor). Tissues or cells are homogenized with a Polytron in 15 volumes of 50 mM Tris-HC1 buffer (pH 7.4, 4°C) and centrifuged. The pellet is resuspended in Tris-HCl buffer and is centrifuged; the pellet is washed twice by resuspension. The final pellet is resuspended at a concentration of 40 mg/ml for tissues and 20 mg/ml for cells in incubation buffer and remains at room temperature for at least 15 min prior to use. Receptor binding is initiated by addition of 250 ul membrane preparation in duplicate to 0.1 nM of the following radioligands: ^125I-Bolton Hunter Lys-3 labeled substance P and ^125iodohistidyl-1-neurokinin A; in a final volume of 500 ul of buffer containing 50 mM Tris-HCl (pH 7.4 at room temperature), 0.1% bovine serum albumin, 2 mM mangenese chloride, 40 ug/ml bacitracin, 4 µg/ml leupeptin and chymostatin, 10 µM thiorphan and various doses of the putative tachykinin antagonists. Incubations are performed at room temperature for 90 min (NK1 receptor assays) or 2 hr (NK2 receptor assay); binding is terminated by addition of 50 mM Tris-HCl buffer (pH 7.4, 4°C) and filtration under vacuum through GF/B filters presoaked with 0.1% polyethyleneimine (NK1 receptor assays) or 0.5% bovine serum albumin (NK2 receptor assay). Filter bound radioactivity is quantitated in a gamma counter. Nonspecific binding is defined as binding in the presence of 1 µM substance P or neurokinin A. Specific binding is calculated by subtracting nonspecific binding from total binding. Competition of iodinated SP or NKA binding by test compounds or standards is expressed as a percentage of this maximum binding. IC50 values (concentration required to inhibit 50% of receptor binding) are generated for each of the test compounds by nonlinear regression using an iterative curve fitting program (GraphPAD Inplot, San Diego, CA).
(§2) Tackykinin receptor binding (IC50 values) for representative compounds of the present invention is found in Table 1. The values in Table 1 were determined by the method of present Example A and represent the mean of several experiments, except where noted. […]

[1] = target: T2, human jejunal NK2 receptor (Homo sapiens, UniProt P21452); assay: Antagonism of iodinated tachykinin binding to NK2 receptors (Example A)
T2 construct: expressed in transfected cells; host or cells: HSKR-1 cells (mouse 3T3 fibroblasts)
T2 sequence (P21452 1-398): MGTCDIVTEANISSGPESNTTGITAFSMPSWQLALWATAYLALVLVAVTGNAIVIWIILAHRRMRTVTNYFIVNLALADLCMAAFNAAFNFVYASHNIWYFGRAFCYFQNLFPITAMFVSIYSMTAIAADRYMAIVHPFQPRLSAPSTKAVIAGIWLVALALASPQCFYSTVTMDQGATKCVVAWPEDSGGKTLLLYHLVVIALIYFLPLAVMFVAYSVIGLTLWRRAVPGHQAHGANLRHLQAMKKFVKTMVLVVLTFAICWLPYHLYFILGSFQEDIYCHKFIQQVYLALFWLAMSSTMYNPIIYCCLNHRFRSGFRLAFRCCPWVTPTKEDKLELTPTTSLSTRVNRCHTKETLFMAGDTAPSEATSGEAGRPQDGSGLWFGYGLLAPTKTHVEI
Method: as §1, §2

| SMILES | IC50 (NK1 receptor) [nM] | IC50 [1] [nM] |
| --- | --- | --- |
| CCOC(=O)CN1CCN(C(=O)C2(c3cccnc3)CCN(CC[C@]3(c4ccc(Cl)c(Cl)c4)CCN(C(=O)c4cc(OC)c(OC)c(OC)c4)C3)CC2)CC1 [Example 5.5, (R)-1-(3,4,5-trimethoxybenzoyl)-3-(2-(4-(pyrid-3-yl)-4-((4-carboethoxymethylpiperazin-1-yl)carboxamido)piperidin-1-yl)ethyl)-3-(3,4-dichlorophenyl)pyrrolidine hydrochloric acid salt] | 6.38 | 2.5 |
| COc1cc(C(=O)N2CC[C@](CCN3CCC(C(=O)N4CCN(CC(=O)O)CC4)(c4cccnc4)CC3)(c3ccc(Cl)c(Cl)c3)C2)cc(OC)c1OC [Example 6.1, (R)-1-(3,4,5-trimethoxybenzoyl)-3-(2-(4-(pyrid-3-yl)-4-((4-carboxymethylpiperazin-1-yl)carboxamido)piperidin-1-yl)ethyl)-3-(3,4-dichlorophenyl)pyrrolidine hydrochloric acid salt] | 16.1 | 14.7 |
| CCOC(=O)CN1CCN(C(=O)C2(c3ccccc3)CCN(CC[C@]3(c4ccc(Cl)c(Cl)c4)CCN(C(=O)c4cc(OC)c(OC)c(OC)c4)C3)CC2)CC1 [Example 8.3.1, (R)-1-(3,4,5-trimethoxvbenzoyl)-3-(2-(4-phenyl-4-((4-carboethoxymethylpiperazin-1-yl)carboxamido)piperidine)ethyl)-3-(3,4-dichlorophenyl)pyrrolidine hydrochloric acid salt] | 7.7 | 2.41 |
| COc1cc(C(=O)N2CC[C@](CCN3CCC(C(=O)N4CCN(CC(=O)O)CC4)(c4ccccc4)CC3)(c3ccc(Cl)c(Cl)c3)C2)cc(OC)c1OC [Example 9.2, (R)-1-(3,4,5-trimethoxybenzoyl)-3-(2-(4-phenyl-4-((4-carboxymethylpiperazin-1-yl)carboxamido)piperidine)ethyl)-3-(3,4-dichlororophenyl)pyrrolidine hydrochloric acid salt] | 5.63 | 3.13 |
| CCOC(=O)CN1CCN(C(=O)C2(c3ccccc3)CCN(CC[C@]3(c4ccc(Cl)c(Cl)c4)CCN(C(=O)c4cc(-n5cnnn5)ccc4OC)C3)CC2)CC1 [Example 10.4, (R)-1-(2-methoxy-5-(1H-tetrazol-1-yl)benzoyl)-3-(2-(4-phenyl-4-((4-carboethoxymethylpiperazin-1-yl)carboxamido)piperidine)ethyl)-3-(3,4-dichlorophenyl)pyrrolidine hydrochloric acid salt] | 8.42 | 51.8 |
| COc1ccc(-n2cnnn2)cc1C(=O)N1CC[C@](CCN2CCC(C(=O)N3CCN(CC(=O)O)CC3)(c3ccccc3)CC2)(c2ccc(Cl)c(Cl)c2)C1 [Example 11.1, (R)-1-(2-methoxy-5-(1H-tetrazol-1-yl)benzoyl)-3-(2-(4-phenyl-4-((4-carboxymethylpiperazin-1-yl)carboxamido)piperidin-1-yl)ethyl)-3-(3,4-dichlorophenyl)pyrrolidine hydrochloric acid salt] | 10.5 | 70.7 |
| COc1cc(C(=O)N2CC[C@@](CCN3CCC(C(=O)N4CCN(CC(=O)O)CC4)(c4ccccc4)CC3)(c3ccc(Cl)c(Cl)c3)C2)cc(OC)c1OC [Example 13.3, (S)-1-(3,4,5-trimethoxybenzoyl)-3-(2-(4-phenyl-4-((4-carboxymethylpiperazin-l-yl)carboxamido)piperidine)ethyl)-3-(3,4-dichlorophenyl)pyrrolidine hydrochloric acid salt] | 5.63 | 3.13 |
| COC(=O)C1CCCN1C(=O)C1(c2ccccc2)CCN(CCC2(c3ccc(Cl)c(Cl)c3)CCN(C(=O)c3cc(OC)c(OC)c(OC)c3)C2)CC1 [Example 14.1, (R)-1-(3,4,5-Trimethoxybenzoyl)-3-(2-(4-phenyl-4-(((S)-2-carbomethoxypyrrolidin-1-yl)carboxamido)piperidin-1-yl)ethyl)-3-(3,4-dichlorophenyl)pyrrolidine] | 4.32 | 4.51 |
| COc1cc(C(=O)N2CC[C@](CCN3CCC(C(=O)N4CCC[C@H]4C(=O)O)(c4ccccc4)CC3)(c3ccc(Cl)c(Cl)c3)C2)cc(OC)c1OC [Example 15.2, (R)-1-(3,4,5-trimethoxybenzonyl)-3-(2-(4-phenyl-4-(((S)-2-carboxypyrrolidin-1-yl)carboxamido)piperidin-1-yl)ethyl)-3-(3,4-dichlorophenyl)pyrrolidine hydrochloric acid salt] | 14 | 17.4 |
| CCOC(=O)C1CCN(C(=O)C2(c3ccccc3)CCN(CC[C@]3(c4ccc(Cl)c(Cl)c4)CCN(C(=O)c4cc(OC)c(OC)c(OC)c4)C3)CC2)CC1 [Example 21.1, (R)-1-(3,4,5-Trimethoxybenzoyl)-3-(2-(4-phenyl-4-((4-carboethoxypiperidin-1-yl)carboxamido)piperidin-1-yl)ethyl)-3-(3,4-dichlorophenyl)pyrrolidine] | 10.4 | 2.28 |
| COc1cc(C(=O)N2CC[C@](CCN3CCC(C(=O)N4CCC(C(=O)O)CC4)(c4ccccc4)CC3)(c3ccc(Cl)c(Cl)c3)C2)cc(OC)c1OC [Example 22.1, (R)-1-(3,4,5-trimethoxybenzoyl)-3-(2-(4-phenyl-4-((4-carboxypiperidin-1-yl)carboxamido)piperidin-1-yl)ethyl)-3-(3,4-dichlorophenyl)pyrrolidine hydrochloric acid salt] | 4.05 | 6.29 |
| CCOC(=O)CN1CCN(C(=O)C2(c3ccccc3)CCN(CCC3(c4ccc(F)c(F)c4)CCN(C(=O)c4cc(OC)c(OC)c(OC)c4)C3)CC2)CC1 (centres unmarked) [Example 23.8, 1-(3,4,5-trimethoxvbenzoyl)-3-(2-(4-phenyl-4-((4-carboethoxymethylpiperazin-1-yl)carboxamido)piperidin-1-yl)ethyl)-3-(3,4-difluorophenyl)pyrrolidine hydrochloric acid salt] | 8.41 | 11.9 |
| CCOC(=O)C1CN(C(=O)C2(c3ccccc3)CCN(CC[C@]3(c4ccc(Cl)c(Cl)c4)CCN(C(=O)c4cc(OC)c(OC)c(OC)c4)C3)CC2)CCO1 (stereo partly drawn) [Example 25.2, (R)-1-(3,4,5-trimethoxybenzoyl)-3-(2-(4-phenyl-4-((2-carboethoxymorpholin-4-yl)carboxamido)piperidin-1-yl)ethyl)-3-(3,4-dichlorophenyl)pyrrolidine fumaric acid salt] | 14.4 | 6.5 |
| COc1cc(C(=O)N2CC[C@](CCN3CCC(C(=O)N4CCOC(C(=O)O)C4)(c4ccccc4)CC3)(c3ccc(Cl)c(Cl)c3)C2)cc(OC)c1OC (stereo partly drawn) [Example 26.1, (R)-1-(3,4,5-Trimethoxybenzoyl)-3-(2-(4-phenyl-4-((2-carboxymorpholin-4-yl)carboxamido)piperidin-1-yl)ethyl)-3-(3,4-dichlorophenyl)pyrrolidine] | 9.9 | 5.7 |
| CCOC(=O)CCN1CCN(C(=O)C2(c3ccccc3)CCN(CC[C@]3(c4ccc(Cl)c(Cl)c4)CCN(C(=O)c4cc(OC)c(OC)c(OC)c4)C3)CC2)CC1 [Example 27.3, (R)-1-(3,4,5-trimethoxvbenzoyl)-3-(2-(4-phenyl-4-((4-carboethoxyethylpiperazin-1-yl)carboxamido)piperidine)ethyl)-3-(3,4-dichlorophenyl)pyrrolidine hydrochloric acid salt] | 9.1 | 2.34 |
| COc1cc(C(=O)N2CC[C@](CCN3CCC(C(=O)N4CCN(CCC(=O)O)CC4)(c4ccccc4)CC3)(c3ccc(Cl)c(Cl)c3)C2)cc(OC)c1OC [Example 28.2, (R)-1-(3,4,5-trimethoxybenzoyl)-3-(2-(4-phenyl-4-((4-carboxyethylpiperazin-1-yl)carboxamido)piperidine)ethyl)-3-(3,4-dichlorophenyl)pyrrolidine hydrochloric acid salt] | 19.6 | 3.73 |
